These are literature values, as cited in patent US20050288375A1, “Method and composition for treating neurodegenerative disorders” (Myriad Genetics, Incorporated, priority 2003, published 2005).

For data set [1] the following is noted: rofecoxib at 25 mg daily; naproxen in the same trial.
Data set [2] has as its system brain cells after cerebral ischemia. Conditions: rats.
Experiment in data set [3]: not given
The source holds these as a separate data set.

Regarding `COc1ccc2cc([C@H](C)C(=O)O)ccc2c1` [Naproxen], the “efficacy for treating AD” value in data set [1] was “failed to show efficacy”.
For `c1ccc(C2(N3CCCCC3)CCCCC2)cc1` [PCP, Phencyclidine], the “destruction of brain cells after cerebral ischemia” value in data set [2] was “prevent the destruction of brain cells”.
As to `COc1ccc2c(c1)[C@@]13CCCC[C@H]1[C@@H](C2)N(C)CC3` [dextromethorphan, (+)-3-methoxy-N-methylmorphinan], the “side effects at high doses” value was “drowsiness, nausea, and decreased coordination”.
Regarding `CN1CC[C@]23CCCC[C@H]2[C@H]1Cc1ccc(O)cc13` [dextrorphan, (+)-3-hydroxy-N-methylmorphinan], the “side effects at high doses” value was “drowsiness, nausea, and decreased coordination”.
On to `CC12CC3CC(C)(C1)CC(N)(C3)C2` [memantine, 1-amino-3,5-dimethyl adamantane], for which, in data set [3], the “efficacy in treating mild-to-moderate AD” value is “showed efficacy”.
Turning to `CS(=O)(=O)c1ccc(C2=C(c3ccccc3)C(=O)OC2)cc1` [rofecoxib], in data set [1], the “efficacy for treating AD” value is recorded as “failed to show efficacy”.
